Measured values taken from the OPERA property sets (Mansouri et al. 2018).

Structure (SMILES)	ready biodegradability	melting point	boiling point	log10 Henry constant (atm·m³/mol)	log10 Koa	log10 vapour pressure (mmHg)	log10 Koc (L/kg)
O=C1c2ccccc2C(=O)C1c1nc2ccccc2c(Br)c1O	not readily biodegradable	–	–	–	–	–	–
CCCCCCCCCCCCCCCCCCCCCCCCCCCCCC(=O)O	–	93.6 °C	–	–	–	–	–
CC#CC#CC	–	67.8 °C	130 °C	–	–	–	–
COC(=O)c1ccccc1O[C@@H]1O[C@H](CO[C@@H]2OC[C@@H](O)[C@H](O)[C@H]2O)[C@@H](O)[C@H](O)[C@H]1O	–	180 °C	–	–	–	–	–
CCOC(C)=O	readily biodegradable	-83.6 °C	77.1 °C	-3.87	2.7	1.97	–
CCCCCCCCCI	–	–	–	–	–	-1.56	–
CCCCCCN(CCCCCC)CCCCCC	–	–	262 °C	–	–	–	–
Cc1c(CN2CCOC(c3ccccc3)C2C)c(=O)n(-c2ccccc2)n1C (centres undefined)	–	150 °C	–	–	–	–	–
Fc1ccc(I)cc1	–	-27 °C	183 °C	–	–	–	–
C=CCCC#N	–	–	140 °C	–	–	–	–
CC1(C)CC1	–	-109 °C	20.6 °C	–	–	–	–
Cc1ccc2[nH]nnc2c1	–	81 °C	–	–	–	–	–
CCc1c(CC)c(CC)c(CC)c(CC)c1CC	–	129 °C	298 °C	–	–	–	–
O=C1C=CCO1	–	4.5 °C	–	–	–	–	–
Cc1ccc(S(=O)(=O)NC(=O)NC2CCCCC2)cc1	–	175 °C	–	–	–	–	–
CCCCC(CC)CN (centres undefined)	–	-76 °C	169 °C	–	–	0.146	–
CCN(CC)S(=O)(=O)c1ccc(C(=O)O)cc1	–	193 °C	–	–	–	–	–
CCCC(=O)C(C)(C)C	–	–	147 °C	–	–	–	–
CC(C(=O)O)(c1ccccc1)c1ccccc1	–	176 °C	–	–	–	–	–
CCN1CCCC(N)C1 (centres undefined)	–	–	155 °C	–	–	–	–
C#CCCCCCCCCC	–	-25 °C	196 °C	–	–	–	–
O=[N+]([O-])c1cc(Cl)cc(Cl)c1	–	65.4 °C	–	–	–	–	–

Structure (SMILES)	ready biodegradability	melting point	boiling point	log10 Henry constant (atm·m³/mol)	log10 Koa	log10 vapour pressure (mmHg)	log10 Koc (L/kg)
Clc1ccc2c(Cl)ccc(Cl)c2c1	–	–	–	–	7.27	–	–
Cc1ncc2n1-c1ccc(Cl)cc1C(c1ccccc1F)=NC2	–	159 °C	–	–	–	–	–
O=C(Nc1ccccc1)NC1CCCC1	–	–	–	–	–	–	1.93
O=C1CCCC1C1CCCC1 (centres undefined)	–	-13 °C	232 °C	–	–	–	–
c1cncc([C@@H]2CCCN2)c1	not readily biodegradable	–	270 °C	–	–	–	–
CC1=CCC(O)(C(C)C)CC1 (centres undefined)	–	–	209 °C	–	–	–	–
O=C(O)CS(=O)(=O)O	–	85 °C	–	–	–	–	–
CC1CO1 (centres undefined)	readily biodegradable	-112 °C	35 °C	–	–	2.73	–
O=S(=O)(c1ccccc1)c1ccc(Cl)cc1	–	94 °C	–	–	–	–	–
C[C@]12CC[C@H]3[C@@H](CCC4=CC(=O)CC[C@@H]43)[C@@H]1CC[C@@H]2O	–	118 °C	–	–	–	–	–
Cc1ccc(Cl)cc1	not readily biodegradable	7.5 °C	162 °C	–	–	0.43	–
CCC(=O)OCc1ccco1	–	–	195 °C	–	–	–	–
NNC=O	–	55 °C	–	–	–	–	–
COC(=O)c1c(Cl)c(Cl)c(C(=O)OC)c(Cl)c1Cl	not readily biodegradable	155 °C	365 °C	–	–	-5.6	3.7
CC(=O)c1ccc(O)c(O)c1	–	116 °C	–	–	–	–	–
Cc1c(Cl)ccc(OC(C)C(O)=Nc2ccccc2)c1Cl (centres undefined)	–	146 °C	–	–	–	–	–
CCOC(=O)c1cccc(Cl)c1O	–	21 °C	270 °C	–	–	–	–
c1ccc(CCCCc2ccccc2)cc1	–	52.5 °C	317 °C	–	–	–	–
CC1(C)CC(NCCCCCCNC2CC(C)(C)NC(C)(C)C2)CC(C)(C)N1	–	64 °C	–	–	–	–	–
CC1=C(C)C(=O)c2ccccc2C1=O	–	127 °C	–	–	–	–	–
Oc1ccc(Cc2ccccc2)cc1	not readily biodegradable	84 °C	322 °C	–	–	–	–
CCCC(CC)C(C)(C)C (centres undefined)	–	–	156 °C	–	–	–	–

Structure (SMILES)	ready biodegradability	melting point	boiling point	log10 Henry constant (atm·m³/mol)	log10 Koa	log10 vapour pressure (mmHg)	log10 Koc (L/kg)
CC(C)(C)C1=CC(=O)C=C(C(C)(C)C)C1=O	–	66 °C	–	–	–	–	–
Cc1cccnc1	not readily biodegradable	-18.1 °C	144 °C	-5.11	–	0.782	–
O=C1CCc2ccccc2N1	–	164 °C	–	–	–	–	–
C[N+](C)(C)OP(=O)([O-])OP(=O)(O)OC[C@H]1O[C@@H](n2ccc(N)nc2=O)[C@H](O)[C@@H]1O	readily biodegradable	–	–	–	–	–	–
O=c1cccco1	–	8.5 °C	208 °C	–	–	–	–
CCCCP(=O)(CCCC)CCCC	–	64 °C	–	–	–	–	–
Ic1ccc(I)s1	–	41.5 °C	–	–	–	–	–
Fc1ccc(F)c(F)c1	–	–	90 °C	–	–	–	–
CCN(C(C)C)C(C)C	–	–	126 °C	–	–	–	–
C1CCC(CCCCCC2CCCCC2)CC1	–	-13.6 °C	325 °C	–	–	–	–
O=CCCCCC=O	–	-8 °C	–	–	–	–	–
CC(C)(C)c1cc(C(=O)O)cc(C(C)(C)C)c1O	–	208 °C	–	–	–	–	–
CCOC(=O)CC	–	-73.9 °C	99.1 °C	–	3.15	1.55	–
CC1=C(/C=C/C(C)=C/C=C/C(C)=C/C=O)C(C)(C)CCC1	–	63 °C	–	–	–	–	–
COc1cc(Cc2cnc(N)nc2N)cc(OC)c1Br	–	226 °C	–	–	–	–	–
C1CCCCCCCCCCCCCC1	–	61.3 °C	–	–	–	–	–
Clc1cc2c(Cl)cc(Cl)c(Cl)c2c(Cl)c1Cl	–	–	–	–	9.67	-6.46	–
c1ccc2nc3ccccc3cc2c1	–	108 °C	346 °C	–	–	-3.87	4.18
CCCC#CCCCCCC	–	-74.7 °C	198 °C	–	–	–	–
Nc1ccc2c(c1)Cc1cc(N)ccc1-2	–	166 °C	–	–	–	–	–
CCOC(=O)C1CC=CCC1 (centres undefined)	–	–	194 °C	–	–	–	–
Sc1ccccc1S	–	28.5 °C	238 °C	–	–	–	–
